Results taken from publication PMC12447755, “β-Lactamase cleavable antimicrobial peptide–drug conjugates” (Chemical Science, 2025).
Like-named read-outs stand apart in the source and are kept apart here. Where a SMILES comes first, the peptide text is derived from it. Where no end group is shown, it is not given here.

Experiments:
[1] = tested on: Pseudomonas aeruginosa strain PAO1; experiment: Initial susceptibility testing at a fixed concentration; format: cell-based; parameters: key: Tick (✓) represents OD600 comparable to no-growth control; cross (✗) represents OD600 comparable to growth control without any peptide; settings: 256 μg mL−1 of peptide, overnight incubation, OD600 compared with growth and no-growth controls
[2] = tested on: P. aeruginosa strain PAO1
[3] = tested on: P. aeruginosa strain PA14
[4] = Table 2, broth microdilution in MH medium, 37 °C, 16 h, MTT and OD600, triplicate
[5] = Table S5, altered linking region between peptide and cephalosporin

CCCCCCCC(=O)NCC(=O)N[C@H]1CSCCc2cc(nc(NCCCc3ccccc3)n2)CCSC[C@@H](C(=O)N[C@@H](CC(C)C)C(N)=O)NC(=O)[C@H](CCCCN)NC(=O)[C@H](CCCCN)NC(=O)[C@H]([C@@H](C)CC)NC(=O)[C@H](Cc2ccccc2)NC(=O)[C@H](CCCCN)NC(=O)[C@H](CC(C)C)NC1=O [P5-1] (HELM PEPTIDE1{[CCCCCCCC(=O)[*:2]].G.C.L.K.F.I.K.K.C.L.[am]}|CHEM1{[c1ccc(CCCNc2nc(CC[*:1])cc(CC[*:2])n2)cc1]}$PEPTIDE1,CHEM1,3:R3-1:R1|PEPTIDE1,CHEM1,10:R3-1:R2$$$V2.0)
Inh (inhibition) [1]: ✗

C[C@@H]1NC(=O)[C@H](Cc2c[nH]c3ccccc23)NC(=O)[C@H](CCCCN)NC(=O)[C@@H](NC(=O)[C@@H](N)Cc2ccccc2)CSCCc2cc(nc(NCCCC(=O)N3CCN(c4cc5c(cc4F)c(=O)c(C(=O)O)cn5C4CC4)CC3)n2)CCSC[C@@H](C(=O)N[C@@H](CCCCN)C(=O)N[C@@H](CCCCN)C(N)=O)NC(=O)[C@H](Cc2c[nH]c3ccccc23)NC(=O)[C@H](CCCCN)NC(=O)[C@H](Cc2ccccc2)NC1=O [P2-12] (HELM PEPTIDE1{F.C.K.W.A.F.K.W.C.K.K.[am]}|CHEM1{[O=C(O)c1cn(C2CC2)c2cc(N3CCN(C(=O)CCCNc4nc(CC[*:1])cc(CC[*:2])n4)CC3)c(F)cc2c1=O]}$PEPTIDE1,CHEM1,2:R3-1:R1|PEPTIDE1,CHEM1,9:R3-1:R2$$$V2.0)
MIC for PAO1 [2, 4]: > 64 µg/mL
MIC for PA14 [3, 4]: > 64 µg/mL

CC(=O)N[C@H](C(=O)N[C@@H](CC(C)C)C(=O)N[C@@H](CCCCN)C(=O)N[C@@H](CCC(N)=O)C(=O)N[C@@H](Cc1ccccc1)C(=O)N[C@H]1CSCCc2cc(nc(NCCCc3ccccc3)n2)CCSC[C@@H](C(=O)N[C@H](C(=O)N[C@@H](CCCCN)C(N)=O)C(C)C)NC(=O)[C@H](Cc2c[nH]c3ccccc23)NC(=O)[C@H](CCCCN)NC(=O)CNC(=O)[C@H](C(C)C)NC(=O)CNC(=O)[C@H](CCCCN)NC1=O)[C@@H](C)O [P1-1] (HELM PEPTIDE1{[ac].T.L.K.Q.F.C.K.G.V.G.K.W.C.V.K.[am]}|CHEM1{[c1ccc(CCCNc2nc(CC[*:1])cc(CC[*:2])n2)cc1]}$PEPTIDE1,CHEM1,7:R3-1:R1|PEPTIDE1,CHEM1,14:R3-1:R2$$$V2.0)
Inh (inhibition) [1]: ✗

CC[C@H](C)[C@H](NC(=O)[C@H](CCCCN)NC(=O)[C@H](CCCCN)NC(=O)[C@H](CS)NC(=O)[C@H](CCCNC(=N)N)NC(=O)[C@H](CCCCN)NC(=O)[C@H](CCCNC(=N)N)NC(=O)[C@H](Cc1c[nH]c2ccccc12)NC(=O)[C@H](CCCCN)NC(=O)[C@H](CCCCN)NC(=O)[C@H](CS)NC(=O)[C@H](CC(C)C)NC(=O)[C@H](CCCNC(=N)N)NC(=O)[C@H](CCCNC(=N)N)NC(=O)[C@H](Cc1ccccc1)NC(=O)[C@@H](N)CCCNC(=N)N)C(N)=O [P4] (H-RFRRLCKKWRKRCKKI-NH2)
Inh (inhibition) [1]: ✗

RFRRLRKKWRKRLKKI-NH2 [P4a, reference compound]
Inh (inhibition) [1]: ✓

CC(C)C[C@@H]1NC(=O)[C@H](CCCNC(=N)N)NC(=O)[C@H](Cc2c[nH]cn2)NC(=O)[C@@H](NC(=O)[C@H](CC(C)C)NC(=O)[C@H](CCCCN)NC(=O)[C@H](CCCNC(=N)N)NC(=O)[C@H](Cc2ccccc2)NC(=O)[C@H](CC(C)C)NC(=O)[C@@H](N)CC(N)=O)CSCCc2cc(nc(NCCCc3ccccc3)n2)CCSC[C@@H](C(=O)N[C@@H](Cc2ccccc2)C(=O)NCC(=O)N[C@@H](Cc2ccc(O)cc2)C(=O)N[C@H](C(=O)N[C@@H](CC(C)C)C(=O)N[C@@H](CCCNC(=N)N)C(N)=O)[C@@H](C)O)NC(=O)[C@H](CCCNC(=N)N)NC(=O)[C@H](CCCNC(=N)N)NC(=O)[C@H](Cc2ccccc2)NC1=O [P7-1] (HELM PEPTIDE1{N.L.F.R.K.L.C.H.R.L.F.R.R.C.F.G.Y.T.L.R.[am]}|CHEM1{[c1ccc(CCCNc2nc(CC[*:1])cc(CC[*:2])n2)cc1]}$PEPTIDE1,CHEM1,7:R3-1:R1|PEPTIDE1,CHEM1,14:R3-1:R2$$$V2.0)
Inh (inhibition) [1]: ✗

CC(=O)OCC1=C(C(=O)O)N2C(=O)[C@@H](NC(=O)CCCNc3nc4cc(n3)CCSC[C@H](N)C(=O)N[C@@H](Cc3ccccc3)C(=O)N[C@@H](C)C(=O)N[C@@H](CCCCN)C(=O)N[C@@H](Cc3c[nH]c5ccccc35)C(=O)N[C@@H](C)C(=O)N[C@@H](Cc3ccccc3)C(=O)N[C@H](C(=O)N[C@@H](Cc3c[nH]c5ccccc35)C(=O)N[C@@H](CC(C)C)C(=O)N[C@@H](CCCCN)C(=O)N[C@@H](CCCCN)C(N)=O)CSCC4)[C@H]2SC1 [P11-8]
PAO1 MIC ([2]; PAO1, 18 h): > 32 µM
PA14 MIC ([3]; PA14, 18 h): > 32 µM

CC(=O)N[C@@H](Cc1c[nH]c2ccccc12)C(=O)N[C@H]1CSCCc2cc(nc(NCCCc3ccccc3)n2)CCSC[C@@H](C(=O)N[C@@H](Cc2ccccc2)C(N)=O)NC(=O)CNC(=O)[C@H](CCCNC(=N)N)NC(=O)[C@H](Cc2ccccc2)NC(=O)[C@H](CCCCN)NC(=O)[C@H](CCCCN)NC(=O)[C@H](CC(C)C)NC1=O [P3-1] (HELM PEPTIDE1{[ac].W.C.L.K.K.F.R.G.C.F.[am]}|CHEM1{[c1ccc(CCCNc2nc(CC[*:1])cc(CC[*:2])n2)cc1]}$PEPTIDE1,CHEM1,3:R3-1:R1|PEPTIDE1,CHEM1,10:R3-1:R2$$$V2.0)
Inh (inhibition) [1]: ✗

C[C@@H]1NC(=O)[C@H](Cc2c[nH]c3ccccc23)NC(=O)[C@H](CCCCN)NC(=O)[C@@H](NC(=O)[C@@H](N)Cc2ccccc2)CSCCc2cc(nc(NCCCC(=O)N[C@@H](C(=O)N[C@@H]3C(=O)N4C(C(=O)O)=C(COC(=O)N5CCN(c6cc7c(cc6F)c(=O)c(C(=O)O)cn7C6CC6)CC5)CS[C@H]34)c3ccccc3)n2)CCSC[C@@H](C(=O)N[C@@H](CCCCN)C(=O)N[C@@H](CCCCN)C(N)=O)NC(=O)[C@H](Cc2c[nH]c3ccccc23)NC(=O)[C@H](CCCCN)NC(=O)[C@H](Cc2ccccc2)NC1=O [P2-21]
PAO1 MIC ([2]; PAO1, 18 h): 27 µM
PAO1 MIC [2, 5]: 64 µg/mL
PA14 MIC ([3]; PA14, 18 h): 13 µM
PA14 MIC ([3]; Table S5): 32 µg/mL

CC(=O)OCC1=C(C(=O)O)N2C(=O)[C@@H](NC(=O)CCCNc3nc4cc(n3)CCSC[C@H](NC(=O)[C@H](Cc3c[nH]c5ccccc35)NC(=O)[C@H](CCCCN)NC(=O)[C@H](C)NC(=O)[C@@H](N)Cc3ccccc3)C(=O)N[C@@H](Cc3ccccc3)C(=O)N[C@@H](CCCCN)C(=O)N[C@@H](Cc3c[nH]c5ccccc35)C(=O)N[C@@H](CC(C)C)C(=O)N[C@@H](CCCCN)C(=O)N[C@@H](CCCCN)C(=O)N[C@H](C(N)=O)CSCC4)[C@H]2SC1 [P9-8]
PAO1 MIC ([2]; PAO1, 18 h): > 31 µM
PA14 MIC ([3]; PA14, 18 h): 31 µM

C[C@@H]1NC(=O)[C@H](Cc2c[nH]c3ccccc23)NC(=O)[C@H](CCCCN)NC(=O)[C@@H](NC(=O)[C@@H](N)Cc2ccccc2)CSCCc2cc(nc(NCCCC(=O)NCCCCCC(=O)N[C@@H]3C(=O)N4C(C(=O)O)=C(COC(=O)N5CCN(c6cc7c(cc6F)c(=O)c(C(=O)O)cn7C6CC6)CC5)CS[C@H]34)n2)CCSC[C@@H](C(=O)N[C@@H](CCCCN)C(=O)N[C@@H](CCCCN)C(N)=O)NC(=O)[C@H](Cc2c[nH]c3ccccc23)NC(=O)[C@H](CCCCN)NC(=O)[C@H](Cc2ccccc2)NC1=O [P2-20]
PAO1 MIC ([2]; PAO1, 18 h): 13 µM
PAO1 MIC [2, 5]: 32 µg/mL
PA14 MIC ([3]; PA14, 18 h): 13 µM
PA14 MIC ([3]; Table S5): 32 µg/mL

CC(=O)OCC1=C(C(=O)O)N2C(=O)[C@@H](NC(=O)CCCNc3nc4cc(n3)CCSC[C@H](N)C(=O)N[C@@H](C)C(=O)N[C@@H](CCCCN)C(=O)N[C@@H](Cc3c[nH]c5ccccc35)C(=O)N[C@@H](C)C(=O)N[C@@H](Cc3ccccc3)C(=O)N[C@@H](CCCCN)C(=O)N[C@H](C(=O)N[C@@H](CC(C)C)C(=O)N[C@@H](CCCCN)C(=O)N[C@@H](CCCCN)C(N)=O)CSCC4)[C@H]2SC1 [P8-8]
PAO1 MIC ([2]; PAO1, 18 h): > 35 µM
PA14 MIC ([3]; PA14, 18 h): > 35 µM

CC(=O)OCC1=C(C(=O)O)N2C(=O)[C@@H](NC(=O)CCCNc3nc4cc(n3)CCSC[C@H](NC(=O)[C@H](CCCCN)NC(=O)[C@H](C)NC(=O)[C@@H](N)Cc3ccccc3)C(=O)N[C@@H](C)C(=O)N[C@@H](Cc3ccccc3)C(=O)N[C@@H](CCCCN)C(=O)N[C@@H](Cc3c[nH]c5ccccc35)C(=O)N[C@@H](CC(C)C)C(=O)N[C@@H](CCCCN)C(=O)N[C@H](C(N)=O)CSCC4)[C@H]2SC1 [P10-8]
PAO1 MIC ([2]; PAO1, 18 h): > 35 µM
PA14 MIC ([3]; PA14, 18 h): > 35 µM

CC[C@H](C)CCCCC(=O)N[C@@H](CCN)C(=O)N[C@H](C(=O)N[C@@H](CCN)C(=O)N[C@H]1CCNC(=O)[C@H]([C@@H](C)O)NC(=O)[C@H](CCN)NC(=O)[C@H](CCN)NC(=O)[C@H](CC(C)C)NC(=O)[C@@H](Cc2ccccc2)NC(=O)[C@H](CCN)NC1=O)[C@@H](C)O [Polymyxin B, reference compound] (HELM PEPTIDE1{[CC[C@H](C)CCCCC(=O)[*:2]].[Dab].T.[Dab].[Dab].[Dab].[dF].L.[Dab].[Dab].T}$PEPTIDE1,PEPTIDE1,5:R3-11:R2$$$V2.0; N-terminus assumed; bridges inferred)
MIC for PAO1 ([2]; PAO1, 18 h): 1.7 µM
PAO1 MIC ([2]; PAO1, 18 h): 0.83 µM
PAO1 MIC ([2]; Table S3, initial MIC values): 2 µg/mL
PAO1 MIC ([2]; Table S4, cephalosporin-based staple 8 at different positions): 1 µg/mL
MIC for PA14 ([3]; PA14, 18 h): 0.83 µM
PA14 MIC ([3]; Table S3, initial MIC values): 1 µg/mL
PA14 MIC ([3]; Table S4): 0.83 µM

KWVQNYMKHLGRKAHTLKT-NH2 [P6a, reference compound]
Inh (inhibition) [1]: ✓

CC(=O)OCC1=C(C(=O)O)N2C(=O)[C@@H](NC(=O)CCCNc3nc4cc(n3)CCSC[C@H](NC(=O)[C@H](CCCCN)NC(=O)[C@H](C)NC(=O)[C@H](Cc3ccccc3)NC(=O)[C@@H](N)CCCCN)C(=O)N[C@@H](C)C(=O)N[C@@H](Cc3ccccc3)C(=O)N[C@@H](CCCCN)C(=O)N[C@@H](Cc3c[nH]c5ccccc35)C(=O)N[C@@H](CC(C)C)C(=O)N[C@@H](CCCCN)C(=O)N[C@H](C(N)=O)CSCC4)[C@H]2SC1 [P12-8]
PAO1 MIC ([2]; PAO1, 18 h): > 33 µM
PA14 MIC ([3]; PA14, 18 h): > 33 µM
